Where “and” joins values, the source holds several entries; their conditions need not be identical. Identical values can stand only once.
Columns and labels:
B. theta Δ1760 strain = test: Growth of Δ1760 (surface endo-levanase deletion) strain on levans from different sources; assay type: cell-based, Bacteroides thetaiotaomicron; conditions: minimal media, anaerobic, 37 °C, replicates 1-3, single wells
Method: Growth curves were performed in an Epoch microplate spectrometer (Biotek Instruments Ltd) with 96-well Costar culture plate (Sigma-Aldrich) inside an anaerobic cabinet at 37 °C (Don Whitley Scientific, A35 workstation). Media were inoculated 1:10 with bacterial cultures previously grown overnight in BHI. Final culture volumes of 200 µl were used, and each condition was performed in triplicate. Optical density at 600 nm was measured in each well at 30 min intervals.
In most cases, the levan used was from Erwinia herbicola (Sigma). For analysis of the growth of the Δ1760 strain, bacterial levans from Bacillus sp. (Montana Polysaccharides) and Zymomonas mobilis[64] (a kind gift from Prof. Dr. Yekta Göksunger, Ege University, Izmir, Turkey) were also used, as well as levan from Timothy grass (Megazyme) and in vitro synthesised levan. In vitro synthesised levan was made using Bacillus subtilis levansucrase incubated with 20% sucrose in PBS for 24 h at 37 °C. Proteinase K (100 µg/ml) was then added to remove the protein, before being precipitated out using 0.5% trichloroacetic acid final. The levan was then extensively dialysed against water and freeze dried.

[1] = target: T1, Bt1763 (SusC) TonB-dependent transporter of the Bacteroides thetaiotaomicron levan utilisation locus (Bacteroides thetaiotaomicron, UniProt Q8A6W3 26-1041); test: crystal structure; Bt1762-63 purified from B. theta outer membranes, in 0.4% C8E4; apo and with 2.5 mM β2,6 FOS; 0.15 M sodium formate, 0.1 M HEPES pH 7-7.5, 16-20% PEG 3350; conditions: both partners purified
T1 construct: Bt1763 (SusC), TonB-dependent transporter of the levan PUL, Bacteroides thetaiotaomicron VPI-5482; numbers count on: the mature protein; In closed states seen by cryo-EM the plug domain has no density; source: endogenous, B. thetaiotaomicron VPI-5482 (Bt1762-his strain) grown on MM fructose; outer membrane extracted with LDAO; purified with His-tagged Bt1762 (IMAC, SEC)
T1 sequence (looked up): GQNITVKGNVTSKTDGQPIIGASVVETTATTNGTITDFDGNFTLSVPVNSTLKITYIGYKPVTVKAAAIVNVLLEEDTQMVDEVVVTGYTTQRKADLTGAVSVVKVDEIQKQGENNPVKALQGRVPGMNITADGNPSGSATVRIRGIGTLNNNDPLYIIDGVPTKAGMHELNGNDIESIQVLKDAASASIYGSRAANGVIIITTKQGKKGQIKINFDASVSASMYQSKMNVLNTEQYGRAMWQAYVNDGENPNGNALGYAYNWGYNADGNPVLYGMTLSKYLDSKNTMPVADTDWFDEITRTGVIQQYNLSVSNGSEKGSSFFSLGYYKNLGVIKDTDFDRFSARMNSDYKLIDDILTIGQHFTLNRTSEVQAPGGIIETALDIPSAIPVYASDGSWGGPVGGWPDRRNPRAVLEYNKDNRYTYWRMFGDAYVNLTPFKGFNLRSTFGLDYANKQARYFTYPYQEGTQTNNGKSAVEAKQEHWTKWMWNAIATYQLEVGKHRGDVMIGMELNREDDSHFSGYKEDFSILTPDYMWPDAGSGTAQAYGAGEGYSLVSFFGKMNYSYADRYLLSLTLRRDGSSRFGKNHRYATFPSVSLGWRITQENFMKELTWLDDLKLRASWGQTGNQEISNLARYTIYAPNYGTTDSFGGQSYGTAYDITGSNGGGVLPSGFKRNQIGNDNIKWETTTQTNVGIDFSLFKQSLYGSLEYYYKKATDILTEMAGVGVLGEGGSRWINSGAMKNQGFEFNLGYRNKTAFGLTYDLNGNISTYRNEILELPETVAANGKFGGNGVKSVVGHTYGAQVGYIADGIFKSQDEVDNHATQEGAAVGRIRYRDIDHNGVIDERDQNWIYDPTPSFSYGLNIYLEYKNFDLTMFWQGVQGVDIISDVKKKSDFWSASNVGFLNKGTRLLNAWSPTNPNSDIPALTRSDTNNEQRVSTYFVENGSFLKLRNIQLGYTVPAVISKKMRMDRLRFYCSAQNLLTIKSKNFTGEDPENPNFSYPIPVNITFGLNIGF

[2] = target: the molecule itself; test: as above

With `O=C(CO)C(O)C(O)C(O)CO` (centres unmarked) [Frc] the “Optical density at 600 nm” value (B. theta Δ1760 strain; time 00:00:00, carbon source 0.5 %) was 0.303 and 0.324 and 0.321 and 0.418 and 0.289 and 0.311 and 0.334 and 0.296 and 0.325, the “Optical density at 600 nm” value (B. theta Δ1760 strain; time 00:30:00, carbon source 0.5 %) was 0.171 (2×) and 0.174 (2×) and 0.172 (2×) and 0.177 and 0.173 and 0.181 and the “Optical density at 600 nm” value (B. theta Δ1760 strain; time 01:00:00, carbon source 0.5 %) was 0.178 (2×) and 0.179 (2×) and 0.177 (2×) and 0.18 (2×) and 0.182. For the same molecule, the “Optical density at 600 nm” value (B. theta Δ1760 strain; time 01:30:00, carbon source 0.5 %) was 0.186 and 0.189 (2×) and 0.187 (2×) and 0.188 (2×) and 0.184 and 0.19, the “Optical density at 600 nm” value (B. theta Δ1760 strain; time 02:00:00, carbon source 0.5 %) was 0.194 and 0.197 and 0.196 (2×) and 0.199 (2×) and 0.191 and 0.202 and 0.198 and the “Optical density at 600 nm” value (B. theta Δ1760 strain; time 02:30:00, carbon source 0.5 %) was 0.203 and 0.21 and 0.212 and 0.211 and 0.198 and 0.204 and 0.215 and 0.206 and 0.214. For the same molecule, the “Optical density at 600 nm” value (B. theta Δ1760 strain; time 03:00:00, carbon source 0.5 %) was 0.211 and 0.217 and 0.232 and 0.225 and 0.205 and 0.212 and 0.229 and 0.214 and 0.226, the “Optical density at 600 nm” value (B. theta Δ1760 strain; time 03:30:00, carbon source 0.5 %) was 0.22 and 0.224 (2×) and 0.261 and 0.24 (2×) and 0.214 and 0.221 and 0.255 and the “Optical density at 600 nm” value (B. theta Δ1760 strain; time 04:00:00, carbon source 0.5 %) was 0.228 and 0.23 (2×) and 0.304 and 0.261 (2×) and 0.22 and 0.234 and 0.284. For the same molecule, the “Optical density at 600 nm” value (B. theta Δ1760 strain; time 04:30:00, carbon source 0.5 %) was 0.233 and 0.24 and 0.355 and 0.279 and 0.223 and 0.252 and 0.313 and 0.238 and 0.283, the “Optical density at 600 nm” value (B. theta Δ1760 strain; time 05:00:00, carbon source 0.5 %) was 0.238 and 0.259 and 0.442 and 0.309 and 0.227 and 0.278 and 0.351 and 0.243 and 0.306 and the “Optical density at 600 nm” value (B. theta Δ1760 strain; time 05:30:00, carbon source 0.5 %) was 0.249.

B1: Bt1762 (SusD) of the Bacteroides thetaiotaomicron levan utilisation locus, with C-terminal His6 tag (natural protein, UniProt Q8A6W4 19-570, looked up)
chain: CDDFLDRQVPQGIVTGDQIASPEYVDNLVISAYAIWATGDDINSSFSLWNYDVRSDDCYKGGSGTEDGGVFNALEISKGINTTDWNINDIWKRLYQCITRANTALQSLDQMDEKTYPLKNQRIAEMRFLRGHAHFMLKQLFKKIVIVNDENMEPDAYNELSNTTYTNDEQWQKIADDFQFAYDNLPEVQIEKGRPAQAAAAAYLAKTYLYKAYRQDGADNALTGINEEDLKQVVKYTDPLIMAKGGYGLETDYSMNFLPQYENGAESVWAIQYSINDGTYNGNLNWGMGLTTPQILGCCDFHKPSQNLVNAFKTDSQGKPLFSTYDNENYEVATDNVDPRLFHTVGMPGFPYKYNEGYIIQKNDDWSRSKGLYGYYVSLKENVDPDCDCLKKGSYWASSLNHIVIRYADVLLMRAEALIQLNDGRITDAISLINEVRSRAAGSTMLIFNYKEDYGVNFKVTPYDLKAYAQDEAMKMLKWERRVEFGMESSRFFDLVRWGEAKDVINAYYVTEASRCSIYKNAGFTENKNEYLPVPFEQISASNGNYTQNFGW
modifications: lipid anchor (lipoprotein)
notes: numbers count on: the mature protein; His6 tag is chromosomal; also called SusD lid; WT (Bt1762-his strain); source: B. thetaiotaomicron VPI-5482 (Bt1762-his strain) grown on MM fructose; outer membrane extracted with LDAO; purified with Bt1763 (IMAC, SEC); not shown: His6, C-terminal, kept
B1: binds [1].

B2: Bt1762-Bt1763 SusCD complex (complex, Bacteroides thetaiotaomicron)
chain 1: CDDFLDRQVPQGIVTGDQIASPEYVDNLVISAYAIWATGDDINSSFSLWNYDVRSDDCYKGGSGTEDGGVFNALEISKGINTTDWNINDIWKRLYQCITRANTALQSLDQMDEKTYPLKNQRIAEMRFLRGHAHFMLKQLFKKIVIVNDENMEPDAYNELSNTTYTNDEQWQKIADDFQFAYDNLPEVQIEKGRPAQAAAAAYLAKTYLYKAYRQDGADNALTGINEEDLKQVVKYTDPLIMAKGGYGLETDYSMNFLPQYENGAESVWAIQYSINDGTYNGNLNWGMGLTTPQILGCCDFHKPSQNLVNAFKTDSQGKPLFSTYDNENYEVATDNVDPRLFHTVGMPGFPYKYNEGYIIQKNDDWSRSKGLYGYYVSLKENVDPDCDCLKKGSYWASSLNHIVIRYADVLLMRAEALIQLNDGRITDAISLINEVRSRAAGSTMLIFNYKEDYGVNFKVTPYDLKAYAQDEAMKMLKWERRVEFGMESSRFFDLVRWGEAKDVINAYYVTEASRCSIYKNAGFTENKNEYLPVPFEQISASNGNYTQNFGW
chain 2: GQNITVKGNVTSKTDGQPIIGASVVETTATTNGTITDFDGNFTLSVPVNSTLKITYIGYKPVTVKAAAIVNVLLEEDTQMVDEVVVTGYTTQRKADLTGAVSVVKVDEIQKQGENNPVKALQGRVPGMNITADGNPSGSATVRIRGIGTLNNNDPLYIIDGVPTKAGMHELNGNDIESIQVLKDAASASIYGSRAANGVIIITTKQGKKGQIKINFDASVSASMYQSKMNVLNTEQYGRAMWQAYVNDGENPNGNALGYAYNWGYNADGNPVLYGMTLSKYLDSKNTMPVADTDWFDEITRTGVIQQYNLSVSNGSEKGSSFFSLGYYKNLGVIKDTDFDRFSARMNSDYKLIDDILTIGQHFTLNRTSEVQAPGGIIETALDIPSAIPVYASDGSWGGPVGGWPDRRNPRAVLEYNKDNRYTYWRMFGDAYVNLTPFKGFNLRSTFGLDYANKQARYFTYPYQEGTQTNNGKSAVEAKQEHWTKWMWNAIATYQLEVGKHRGDVMIGMELNREDDSHFSGYKEDFSILTPDYMWPDAGSGTAQAYGAGEGYSLVSFFGKMNYSYADRYLLSLTLRRDGSSRFGKNHRYATFPSVSLGWRITQENFMKELTWLDDLKLRASWGQTGNQEISNLARYTIYAPNYGTTDSFGGQSYGTAYDITGSNGGGVLPSGFKRNQIGNDNIKWETTTQTNVGIDFSLFKQSLYGSLEYYYKKATDILTEMAGVGVLGEGGSRWINSGAMKNQGFEFNLGYRNKTAFGLTYDLNGNISTYRNEILELPETVAANGKFGGNGVKSVVGHTYGAQVGYIADGIFKSQDEVDNHATQEGAAVGRIRYRDIDHNGVIDERDQNWIYDPTPSFSYGLNIYLEYKNFDLTMFWQGVQGVDIISDVKKKSDFWSASNVGFLNKGTRLLNAWSPTNPNSDIPALTRSDTNNEQRVSTYFVENGSFLKLRNIQLGYTVPAVISKKMRMDRLRFYCSAQNLLTIKSKNFTGEDPENPNFSYPIPVNITFGLNIGF
modifications: lipid anchor (lipoprotein)
notes: Bt1762 (SusD), Bacteroides thetaiotaomicron VPI-5482; as m1; numbers count on: the mature protein; Bt1763 (SusC), Bacteroides thetaiotaomicron VPI-5482; as m2; One SusCD unit (one Bt1762, one Bt1763); two such units form the SusC2D2 dimer; also called Bt1762-63; BT1762-63; source: B. thetaiotaomicron VPI-5482 (Bt1762-his strain) grown on MM fructose; outer membrane extracted with LDAO; purified …
In the case of B2, the “stoichiometry N” value [2] is reported as 2.

— publication PMC7782687, “Insights into SusCD-mediated glycan import by a prominent gut symbiont” (Nature Communications, 2021)
